Results taken from patent publication US12030878B2 (BRISTOL-MYERS SQUIBB COMPANY, priority 2017, dated 2024).

Columns and labels:
Format in all cases: cell-based
human TLR9 = molecular target: T1, human TLR9 (Homo sapiens, UniProt Q9NR96); experiment: TLR9 inhibition reporter assay (HEK-Blue SEAP); conditions: HEK-Blue cells overexpressing human TLR9, stimulated with ODN2006 5 nM, 22 hour incubation
T1 construct: host or cells: HEK-Blue cells
T1 sequence (Q9NR96 26-1032): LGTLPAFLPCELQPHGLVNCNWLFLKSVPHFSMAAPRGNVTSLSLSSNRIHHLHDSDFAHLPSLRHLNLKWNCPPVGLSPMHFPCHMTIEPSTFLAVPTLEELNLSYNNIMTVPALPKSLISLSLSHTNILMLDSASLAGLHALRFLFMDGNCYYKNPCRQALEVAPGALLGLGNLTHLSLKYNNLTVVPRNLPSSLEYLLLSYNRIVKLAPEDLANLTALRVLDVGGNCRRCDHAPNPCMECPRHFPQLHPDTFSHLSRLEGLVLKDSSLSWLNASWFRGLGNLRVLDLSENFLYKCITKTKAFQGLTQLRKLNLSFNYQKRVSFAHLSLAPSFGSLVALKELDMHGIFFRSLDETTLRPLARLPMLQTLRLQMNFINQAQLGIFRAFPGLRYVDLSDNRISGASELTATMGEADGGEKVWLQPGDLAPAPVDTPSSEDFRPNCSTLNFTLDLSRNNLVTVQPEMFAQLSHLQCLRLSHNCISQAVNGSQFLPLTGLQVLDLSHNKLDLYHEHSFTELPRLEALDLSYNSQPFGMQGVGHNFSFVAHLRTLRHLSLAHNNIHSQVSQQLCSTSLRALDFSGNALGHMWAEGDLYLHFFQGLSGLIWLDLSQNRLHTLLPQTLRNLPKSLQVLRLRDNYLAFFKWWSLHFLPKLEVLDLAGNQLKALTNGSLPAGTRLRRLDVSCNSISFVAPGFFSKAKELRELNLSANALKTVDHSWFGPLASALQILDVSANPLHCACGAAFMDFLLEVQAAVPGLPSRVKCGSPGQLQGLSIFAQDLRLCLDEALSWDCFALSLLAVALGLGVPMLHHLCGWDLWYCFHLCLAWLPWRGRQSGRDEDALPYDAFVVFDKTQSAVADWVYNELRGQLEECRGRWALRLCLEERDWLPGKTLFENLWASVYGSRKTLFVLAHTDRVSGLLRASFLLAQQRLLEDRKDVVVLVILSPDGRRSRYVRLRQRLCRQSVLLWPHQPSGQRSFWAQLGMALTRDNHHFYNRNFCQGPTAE
Summary of the method: (§1)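 SEAP read-out via HEK-Blue Detection medium after 22 h at 37 °C; percent inhibition relative to agonist-plus-DMSO and known-inhibitor wells. Agonists: TLR7 gardiquimod 7.5 μM, TLR8 R848 15.9 μM, TLR9 ODN2006 5 nM. Dose range 0.05 nM–50 μM, 30 min compound pre-treatment at RT.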

human TLR8 = molecular target: T2, human TLR8 (Homo sapiens, UniProt Q9NR97); experiment: TLR8 inhibition reporter assay (HEK-Blue SEAP); conditions: HEK-Blue cells overexpressing human TLR8, stimulated with R848 15.9 μM, 22 hour incubation
T2 construct: host or cells: HEK-Blue cells
T2 sequence (Q9NR97 27-1041): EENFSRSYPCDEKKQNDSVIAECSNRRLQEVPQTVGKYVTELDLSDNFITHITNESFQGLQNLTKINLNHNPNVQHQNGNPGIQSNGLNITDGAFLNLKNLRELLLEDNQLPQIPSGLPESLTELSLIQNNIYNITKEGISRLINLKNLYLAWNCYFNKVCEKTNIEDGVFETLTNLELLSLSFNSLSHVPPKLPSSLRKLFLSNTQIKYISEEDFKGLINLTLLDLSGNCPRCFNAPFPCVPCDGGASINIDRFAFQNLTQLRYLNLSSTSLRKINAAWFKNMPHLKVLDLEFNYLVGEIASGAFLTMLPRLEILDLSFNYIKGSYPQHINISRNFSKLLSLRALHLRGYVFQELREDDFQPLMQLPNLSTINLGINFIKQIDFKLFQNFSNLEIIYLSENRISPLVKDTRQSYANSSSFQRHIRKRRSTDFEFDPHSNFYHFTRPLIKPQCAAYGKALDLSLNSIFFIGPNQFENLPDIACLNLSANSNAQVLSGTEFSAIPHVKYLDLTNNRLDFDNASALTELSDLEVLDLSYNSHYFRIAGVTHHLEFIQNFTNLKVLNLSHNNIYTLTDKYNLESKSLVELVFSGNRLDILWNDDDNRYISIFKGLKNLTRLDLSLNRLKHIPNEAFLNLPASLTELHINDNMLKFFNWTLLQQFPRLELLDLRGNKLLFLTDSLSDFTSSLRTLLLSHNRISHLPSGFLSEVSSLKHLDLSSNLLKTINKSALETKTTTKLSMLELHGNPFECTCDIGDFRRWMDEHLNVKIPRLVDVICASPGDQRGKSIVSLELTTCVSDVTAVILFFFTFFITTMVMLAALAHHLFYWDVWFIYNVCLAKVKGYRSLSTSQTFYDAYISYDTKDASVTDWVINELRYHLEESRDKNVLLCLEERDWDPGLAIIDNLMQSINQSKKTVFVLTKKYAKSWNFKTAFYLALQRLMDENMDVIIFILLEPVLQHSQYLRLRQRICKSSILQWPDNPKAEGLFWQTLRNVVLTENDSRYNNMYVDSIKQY
Summary of the method: as §1

human TLR7 = molecular target: T3, human TLR7 (Homo sapiens, UniProt Q9NYK1); experiment: TLR7 inhibition reporter assay (HEK-Blue SEAP); conditions: HEK-Blue cells overexpressing human TLR7, stimulated with gardiquimod 7.5 μM, 22 hour incubation
T3 construct: host or cells: HEK-Blue cells
T3 sequence (Q9NYK1 27-1049): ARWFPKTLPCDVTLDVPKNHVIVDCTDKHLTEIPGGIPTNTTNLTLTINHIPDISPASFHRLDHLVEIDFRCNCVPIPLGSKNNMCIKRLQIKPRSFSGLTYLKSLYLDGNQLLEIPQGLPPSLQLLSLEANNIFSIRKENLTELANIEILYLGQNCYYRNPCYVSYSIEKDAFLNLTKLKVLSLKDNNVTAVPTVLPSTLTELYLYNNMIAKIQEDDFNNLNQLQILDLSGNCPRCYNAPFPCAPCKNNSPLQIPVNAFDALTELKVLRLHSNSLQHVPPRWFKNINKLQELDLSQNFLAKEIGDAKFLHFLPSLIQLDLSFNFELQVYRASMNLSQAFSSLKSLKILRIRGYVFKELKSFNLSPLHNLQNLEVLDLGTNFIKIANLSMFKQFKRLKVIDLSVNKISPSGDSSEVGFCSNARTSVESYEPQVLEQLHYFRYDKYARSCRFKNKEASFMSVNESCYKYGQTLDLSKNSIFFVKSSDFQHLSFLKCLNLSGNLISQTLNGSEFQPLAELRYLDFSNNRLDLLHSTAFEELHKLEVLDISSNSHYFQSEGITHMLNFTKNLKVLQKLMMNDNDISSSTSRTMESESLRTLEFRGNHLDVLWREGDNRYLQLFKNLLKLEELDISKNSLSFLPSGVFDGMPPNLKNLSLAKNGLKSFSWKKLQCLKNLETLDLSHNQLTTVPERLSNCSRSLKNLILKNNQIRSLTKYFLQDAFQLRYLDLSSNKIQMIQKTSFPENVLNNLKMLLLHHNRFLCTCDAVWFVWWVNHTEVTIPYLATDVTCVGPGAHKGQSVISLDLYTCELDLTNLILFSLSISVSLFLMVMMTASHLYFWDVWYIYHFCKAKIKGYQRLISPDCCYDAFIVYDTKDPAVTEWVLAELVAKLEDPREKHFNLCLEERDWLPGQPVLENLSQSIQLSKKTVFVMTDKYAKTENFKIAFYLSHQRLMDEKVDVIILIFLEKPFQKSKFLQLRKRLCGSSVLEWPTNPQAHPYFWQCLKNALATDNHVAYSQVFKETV
Summary of the method: as §1

With `Cc1cc(-c2[nH]c3ccc(OCC4CN(C(C)C)C4)cc3c2C(C)C)cn2ncnc12` [Example 58, 6-(3-isopropyl-5-((1-isopropylazetidin-3-yl)methoxy)-1H-indol-2-yl)-8-methyl-[1,2,4] triazolo[1,5-a]pyridine] as the compound, how does the IC50 (human TLR9) read?
The IC50 was 2440 nM.

And the IC50 (human TLR8)?
Its IC50 is 5.1 nM.

What about the IC50 (human TLR7) of the same compound?
Its IC50 is 1.4 nM.

How did the IC50 (human TLR9) turn out when `Cc1cc(-c2[nH]c3ccc(OCC4CN(C)C4)cc3c2C(C)C)cn2ncnc12` [Example 59, 6-(3-isopropyl-5-((1-methylazetidin-3-yl)methoxy)-1H-indol-2-yl)-8-methyl-[1,2,4]triazolo[1,5-a]pyridine] was run?
Its IC50 is 2990 nM.

And the IC50 (human TLR8)?
Its IC50 is 6.8 nM.

What about the IC50 (human TLR7) of the same compound?
Its IC50 is 0.5 nM.

With `Cc1cc(-c2[nH]c3ccc(OCC4CN(C5COC5)C4)cc3c2C(C)C)cn2ncnc12` [Example 60, 6-(3-isopropyl-5-((1-(oxetan-3-yl)azetidin-3-yl)methoxy)-1H-indol-2-yl)-8-methyl-[1,2,4]triazolo[1,5-a]pyridine] as the compound, how does the IC50 (human TLR9) read?
The IC50 was 2620 nM.

What about the IC50 (human TLR8) of the same compound?
Its IC50 is 4.7 nM.

What about the IC50 (human TLR7) of the same compound?
Its IC50 is 1.2 nM.

With `Cc1c(-c2[nH]c3ccc(OCC4CN(C)C4)cc3c2C(C)C)cn2cnnc2c1C` [Example 61, 6-(3-isopropyl-5-((1-methylazetidin-3-yl)methoxy)-1H-indol-2-yl)-7,8-dimethyl-[1,2,4]triazolo[4,3-a]pyridine] as the compound, how does the IC50 (human TLR9) read?
Its IC50 is 6360 nM.

What about the IC50 (human TLR8) of the same compound?
Its IC50 is 439 nM.

And the IC50 (human TLR7)?
The IC50 was 493 nM.

How did the IC50 (human TLR9) turn out when `CCCN1CCC(COc2ccc3[nH]c(-c4cn5cnnc5c(C)c4C)c(C(C)C)c3c2)CC1` [Example 62, 6-(3-isopropyl-5-((1-propylpiperidin-4-yl)methoxy)-1H-indol-2-yl)-7,8-dimethyl-[1,2,4]triazolo[4,3-a]pyridine] was run?
Its IC50 is 1290 nM.

And the IC50 (human TLR8)?
Its IC50 is 6 nM.

And the IC50 (human TLR7)?
The IC50 was 1 nM.

For `CCCN1CCC(Oc2ccc3[nH]c(-c4cn5cnnc5c(C)c4C)c(C(C)C)c3c2)CC1` [Example 63, 6-(3-isopropyl-5-((1-propylpiperidin-4-yl)oxy)-1H-indol-2-yl)-7,8-dimethyl-[1,2,4]triazolo[4,3-a]pyridine], which IC50 (human TLR9) is on record?
Its IC50 is 2190 nM.

And the IC50 (human TLR8)?
Its IC50 is 2.5 nM.

What about the IC50 (human TLR7) of the same compound?
The IC50 was 2.1 nM.

What does the source list for `Cc1cc(-c2[nH]c3ccc(OC4CCC(N(C)C)CC4)cc3c2C(C)C)cn2ncnc12` (stereo not drawn) [Example 64, 4-((3-isopropyl-2-(8-methyl-[1,2,4]triazolo[1,5-a]pyridin-6-yl)-1H-indol-5-yl)oxy)-N,N-dimethylcyclohexan-1-amine]?
IC50 (human TLR9): 2570 nM; IC50 (human TLR8): 10.6 nM; IC50 (human TLR7): 0.7 nM

Which IC50 (human TLR9) does the source give for `COc1cc(-c2[nH]c3ccc(OC4CCN(C)CC4)cc3c2C(C)C)cn2ncnc12` [Example 65, 6-(3-isopropyl-5-((1-methylpiperidin-4-yl)oxy)-1H-indol-2-yl)-8-methoxy-[1,2,4]triazolo[1,5-a]pyridine] here?
Its IC50 is 1750 nM.

What about the IC50 (human TLR8) of the same compound?
The IC50 was 0.5 nM.

And the IC50 (human TLR7)?
The IC50 was 0.3 nM.

Which IC50 (human TLR9) does the source give for `COc1cc(-c2[nH]c3ccc(OC4CCN(C(C)C)CC4)cc3c2C(C)C)cn2ncnc12` [Example 66, 6-(3-isopropyl-5-((1-isopropylpiperidin-4-yl)oxy)-1H-indol-2-yl)-8-methoxy-[1,2,4]triazolo[1,5-a]pyridine] here?
Its IC50 is 1150 nM.

And the IC50 (human TLR8)?
The IC50 was 0.7 nM.

And the IC50 (human TLR7)?
Its IC50 is 0.8 nM.

For `CCCN1CCC(Oc2ccc3[nH]c(-c4cc(OC)c5ncnn5c4)c(C(C)C)c3c2)CC1` [Example 67, 6-(3-isopropyl-5-((1-propylpiperidin-4-yl)oxy)-1H-indol-2-yl)-8-methoxy-[1,2,4]triazolo[1,5-a]pyridine], which IC50 (human TLR9) is on record?
Its IC50 is 1060 nM.

And the IC50 (human TLR8)?
Its IC50 is 0.2 nM.

And the IC50 (human TLR7)?
The IC50 was 0.2 nM.

Which results are given for `Cc1cc(-c2[nH]c3ccc(OC4CCN(C5CCOCC5)CC4)cc3c2C(C)C)cn2ncnc12` [Example 68, 6-(3-isopropyl-5-((1-(tetrahydro-2H-pyran-4-yl)piperidin-4-yl)oxy)-1H-indol-2-yl)-8-methyl-[1,2,4]triazolo[1,5-a]pyridine]?
IC50 (human TLR9): 2290 nM; IC50 (human TLR8): 1.7 nM; IC50 (human TLR7): 5.9 nM

What does the source list for `Cc1cc(-c2[nH]c3ccc(OC4CCN(CC(C)O)CC4)cc3c2C(C)C)cc(C)n1` (stereo not drawn) [Example 69, 1-(4-((2-(2,6-dimethylpyridin-4-yl)-3-isopropyl-1H-indol-5-yl)oxy)piperidin-1-yl) propan-2-ol]?
IC50 (human TLR9): 733 nM; IC50 (human TLR8): 2.4 nM; IC50 (human TLR7): 5.6 nM

Which IC50 (human TLR9) does the source give for `Cc1cc(-c2[nH]c3ccc(OC4CCN(CCO)CC4)cc3c2C(C)C)cc(C)n1` [Example 70, 2-(4-((2-(2,6-dimethylpyridin-4-yl)-3-isopropyl-1H-indol-5-yl)oxy)piperidin-1-yl) ethan-1-ol] here?
The IC50 was 1040 nM.

And the IC50 (human TLR8)?
The IC50 was 1.5 nM.

What about the IC50 (human TLR7) of the same compound?
The IC50 was 9.6 nM.

With `Cc1cc(-c2[nH]c3ccc(OCC4CCN(CCO)CC4)cc3c2C(C)C)cc(C)n1` [Example 71, 2-(4-(((2-(2,6-dimethylpyridin-4-yl)-3-isopropyl-H-indol-5-yl)oxy)methyl)piperidin-1-yl)ethan-1-ol] as the compound, how does the IC50 (human TLR9) read?
Its IC50 is 359 nM.

And the IC50 (human TLR8)?
The IC50 was 2.5 nM.

What about the IC50 (human TLR7) of the same compound?
Its IC50 is 3.8 nM.

`Cc1cc(-c2[nH]c3ccc(OC4CCN(CCCO)CC4)cc3c2C(C)C)cc(C)n1` [Example 72, 3-(4-((2-(2,6-dimethylpyridin-4-yl)-3-isopropyl-1H-indol-5-yl)oxy)piperidin-1-yl)propan-1-ol] was tested. Which IC50 (human TLR9) did it give?
Its IC50 is 528 nM.

And the IC50 (human TLR8)?
The IC50 was 1.3 nM.

What about the IC50 (human TLR7) of the same compound?
Its IC50 is 3.8 nM.
